Here are results for 49 compounds from patent US20250304571A1, “BIOLOGICALLY ACTIVE COMPOUNDS AND METHODS THEREOF” (Suzhou Keen Therapeutics Co., Ltd., priority 2022, published 2025).

The subject of the assay is 786-O (renal cell carcinoma) cells. As to the kind of experiment: Cell viability (CellTiter Glo) assay, inhibition of 786-O cell proliferation. The format is cell-based. The conditions noted are these: read-out: IC50, inhibition of 786-O cell proliferation.
Setting [1] is: Homo sapiens, 786-0, 786-O cells, 72 hours, CellTiter Glo.
Where [2] appears, read: 786-O cells, 72 hours, CellTiter Glo.

Like-named read-outs stand apart in the source and are kept apart here. Where only a bound is given, the exact number is not on record here.

Regarding `CNc1nc(COC(=N)N2CCCC2C(F)(F)F)nc2c(-c3ccc(N4CCOCC4)cc3)csc12` (stereo not shown) [Compound E179, (4-(Methylamino)-7-(4-morpholinophenyl)thieno[3,2-d]pyrimidin-2-yl)methyl 2-(trifluoromethyl)pyrrolidine-1-carbimidate], the IC50 under setting [1] was under 100 nM.

In the case of `CNc1nc([C@H](C)OC(=N)N2CCC[C@@H]2C(F)(F)F)nc2c1C(C)(C)C(=O)N2c1ccc(N2CCOCC2)cc1` [Compound E180], under setting [2], the IC50 is over 5000 nM. Regarding `CNc1nc([C@@H](C)OC(=N)N2CCC[C@@H]2C(F)(F)F)nc2c1C(C)(C)C(=O)N2c1ccc(N2CCOCC2)cc1` [Compound E181], the IC50 under setting [2] was over 5000 nM.

As for `CNc1nc(COC(=N)N2CCCC2C(F)(F)F)nc2c1C(C)(C)C(=O)N2c1ccc2c(c1)CCCO2` (stereo not shown) [Compound E182], the IC50 under setting [2] was under 100 nM. As for `CNc1nc(COC(=N)N2CCC[C@H]2C(F)(F)F)nc2c1C(C)(C)C(=O)N2c1ccc(N2C[C@@H](C)O[C@@H](C)C2)nc1` [Compound E183], under setting [1], the IC50 was 100 to 500 nM. Regarding `CNc1nc(COC(=N)N2CCC[C@@H]2C(F)(F)F)nc2c(-c3ccc(N4CCOCC4)cc3OC)coc12` [Compound E184, (7-(2-Methoxy-4-morpholinophenyl)-4-(methylamino)furo[3,2-d]pyrimidin-2-yl)methyl (R)-2-(trifluoromethyl)pyrrolidine-1-carbimidate], the IC50 under setting [1] is under 100 nM.

Turning to `CNc1nc(COC(=N)N2CCC[C@@H]2C(F)(F)F)nc2c1C(C)(C)C(=O)N2c1ccc2c(c1)CCCO2` [Compound E185], the IC50 under setting [1] is under 100 nM. Same read-out and setting: the same measure for `C[C@@H]1CN(c2ccc(N3C(=O)C(C)(C)c4c(N)nc(COC(=N)N5CCC[C@@H]5C(F)(F)F)nc43)cn2)C[C@H](C)O1` [Compound E186, (4-amino-7-(6-((2S,6R)-2,6-dimethylmorpholino)pyridin-3-yl)-5,5-dimethyl-6-oxo-6,7-dihydro-5H-pyrrolo[2,3-d]pyrimidin-2-yl)methyl (R)-2-(trifluoromethyl)pyrrolidine-1-carbimidate]: under 100 nM. Take `[2H]C([2H])([2H])Nc1nc(COC(=N)N2CCC[C@@H]2C(F)(F)F)nc2c1C(C)(C)C(=O)N2c1ccc(N2C[C@@H](C)O[C@@H](C)C2)nc1` [Compound E187, (7-(6-((2S,6R)-2,6-Dimethylmorpholino)pyridin-3-yl)-5,5-dimethyl-4-((methyl-d3)amino)-6-oxo-6,7-dihydro-5H-pyrrolo[2,3-d]pyrimidin-2-yl)methyl (R)-2-(trifluoromethyl)pyrrolidine-1-carbimidate]: the IC50 under setting [1] fell in the range of 100 to 500 nM.

As to `C[C@@H]1CN(c2ccc(N3C(=O)C(C)(C)c4c(NC5CC5)nc(COC(=N)N5CCC[C@@H]5C(F)(F)F)nc43)cn2)C[C@H](C)O1` [Compound E188, (4-(Cyclopropylamino)-7-(6-((2S,6R)-2,6-dimethylmorpholino)pyridin-3-yl)-5,5-dimethyl-6-oxo-6,7-dihydro-5H-pyrrolo[2,3-d]pyrimidin-2-yl)methyl (R)-2-(trifluoromethyl)pyrrolidine-1-carbimidate], the IC50 under setting [1] was under 100 nM. Take `C[C@@H]1CN(c2ccc(N3C(=O)C(C)(C)c4c(N)nc(COC(=N)N(C)CC(F)(F)F)nc43)cn2)C[C@H](C)O1` [Compound E189, (4-amino-7-(6-((2R,6S)-2,6-dimethylmorpholino)pyridin-3-yl)-5,5-dimethyl-6-oxo-6,7-dihydro-5H-pyrrolo[2,3-d]pyrimidin-2-yl)methyl methyl(2,2,2-trifluoroethyl)carbamimidate]: the IC50 under setting [1] is 100 to 500 nM. In the case of `CCN(CC(F)(F)F)C(=N)OCc1nc(N)c2c(n1)N(c1ccc(N3C[C@@H](C)O[C@@H](C)C3)nc1)C(=O)C2(C)C` [Compound E190], the IC50 under setting [1] was 100 to 500 nM. Still for that read-out and setting: the same measure for `CC(C)N(CC(F)(F)F)C(=N)OCc1nc(N)c2c(n1)N(c1ccc(N3C[C@@H](C)O[C@@H](C)C3)nc1)C(=O)C2(C)C` [Compound E191]: 100 to 500 nM.

Regarding `C#CCN(CC(F)(F)F)C(=N)OCc1nc(N)c2c(n1)N(c1ccc(N3C[C@@H](C)O[C@@H](C)C3)nc1)C(=O)C2(C)C` [Compound E192], the IC50 under setting [1] lay within 100 to 500 nM. Turning to `C[C@@H]1CN(c2ccc(N3C(=O)C(C)(C)c4c(N)nc(COC(=N)N(CC(F)(F)F)C5CC5)nc43)cn2)C[C@H](C)O1` [Compound E193], the IC50 under setting [1] lay in the range of 100 to 500 nM. Still for that read-out and setting: the same measure for `CNc1nc(COC(=N)N2CCC[C@@H]2C(F)(F)F)nc2c(-c3ccc(N4C[C@@H](C)O[C@@H](C)C4)nc3)coc12` [Compound E194]: 100 to 500 nM. On the same count and under the same terms, the same measure for `C[C@@H]1CN(c2ccc(N3C(=O)C(C)(C)c4c(N)nc(COC(=N)N5CC(F)(F)C(F)(F)C5)nc43)cn2)C[C@H](C)O1` [Compound E195]: 100 to 500 nM; for `CC1(C)C(=O)N(c2ccc(N3CCOCC3)cc2)c2nc(COC(=N)N3CCC[C@@H]3C(F)(F)F)nc(NCC(F)F)c21` [Compound E197]: under 100 nM; for `N=C(OCc1nc(NC2CC2)c2c(n1)N(c1ccc(N3CCOCC3)c(F)c1)C(=O)C21CCCC1)N1CCC[C@@H]1C(F)(F)F` [Compound E198]: under 100 nM.

Take `N=C(OCc1nc(C(F)F)c2c(n1)N(c1ccc(N3CCOCC3)cc1)C(=O)C21CCCC1)N1CCC[C@@H]1C(F)(F)F` [Compound E199]: the IC50 under setting [1] is 500 to 5000 nM.

With `CC1(C)C(=O)N(c2ccc(N3CCOCC3)c(F)c2)c2nc(COC(=N)N3CCC[C@@H]3C(F)(F)F)nc(NC3CC3)c21` [Compound E200], under setting [1], the IC50 was under 100 nM. Turning to `CCCNc1nc(COC(=N)N2CCC[C@@H]2C(F)(F)F)nc2c1C(C)(C)C(=O)N2c1ccc(N2CCOCC2)cc1` [Compound E201], the IC50 under setting [1] is under 100 nM. On the same count and under the same terms, the same measure for `N=C(OCc1nc2c(c(C(F)(F)F)n1)C1(CCCC1)C(=O)N2c1ccc(N2CCOCC2)cc1)N1CCC[C@@H]1C(F)(F)F` [Compound E202]: 500 to 5000 nM. Regarding `C[C@@H]1CN(c2ccc(N3C(=O)C(C)(C)c4c(NCC(F)F)nc(COC(=N)N5CCC[C@@H]5C(F)(F)F)nc43)cc2)C[C@H](C)O1` [Compound E203], for the setting “Homo sapiens, 786-0, 72 h”, the IC50 is 100 to 500 nM. With `N=C(OCc1nc(NC2CC2)c2c(n1)N(c1cnc(N3CCCCC3)nc1)C(=O)C21CCCC1)N1CCC[C@@H]1C(F)(F)F` [Compound E204], the IC50 under setting [1] was under 100 nM. With `N=C(OCc1nc(NC2CC2)c2c(n1)N(c1ccc(F)c(F)c1)C(=O)C21CCCC1)N1CCC[C@@H]1C(F)(F)F` [Compound E205], the IC50 under setting [1] was under 100 nM.

On to `N=C(OCc1nc(NC2CC2)c2c(n1)N(c1cc(F)cc(F)c1)C(=O)C21CCCC1)N1CCC[C@@H]1C(F)(F)F` [Compound E206], for which the IC50 under setting [2] was in the range of 100 to 500 nM. In the case of `COc1cc(F)ccc1N1CC(C)(C)c2c(NC3CC3)nc(COC(=N)N3CCC[C@@H]3C(F)(F)F)nc21` [Compound E207], the IC50 under setting [1] is under 100 nM. Regarding `COc1cc(F)ccc1N1CC(C)(C)c2c(NCC(F)(F)F)nc(COC(=N)N3CCC[C@@H]3C(F)(F)F)nc21` [Compound E208], under setting [1], the IC50 was under 100 nM. `N=C(OCc1nc(N)c2c(n1)N(c1ccc(F)c(F)c1)C(=O)C21CCCC1)N1CCC[C@@H]1C(F)(F)F` [Compound E209]: the IC50 under setting [1] was under 100 nM. `CC(C)Nc1nc(COC(=N)N2CCC[C@@H]2C(F)(F)F)nc2c1C1(CCCC1)C(=O)N2c1cnc(N2CCCCC2)nc1` [Compound E211]: under “Homo sapiens, 786-0, 72 h”, the IC50 was under 100 nM. Consider `CC(C)Nc1nc(COC(=N)N2CCC[C@@H]2C(F)(F)F)nc2c1C1(CCCC1)C(=O)N2c1ccc(F)c(F)c1` [Compound E212], for which the IC50 (Homo sapiens, 786-0, 72 h) was under 100 nM.

As for `CS(=O)(=O)c1ccc(N2C(=O)C3(CCCC3)c3c(N)nc(COC(=N)N4CCC[C@@H]4C(F)(F)F)nc32)cc1` [Compound E213], the IC50 under setting [1] was 100 to 500 nM.

Consider `C[C@@H]1CN(c2ccc(N3C(=O)C4(CCCC4)c4c(N)nc(COC(=N)N5CCC[C@@H]5C(F)(F)F)nc43)cc2F)C[C@H](C)O1` [Compound E214], for which, under setting [1], the IC50 was under 100 nM.

On to `CNc1nc(COC(=N)N2CCC[C@@H]2C(F)(F)F)nc2c1C1(CCCC1)C(=O)N2c1cnc(C2CC2)nc1` [Compound E215], for which the IC50 under setting [1] lay within 100 to 500 nM. On the same count and under the same terms, the figure for `CNc1nc(COC(=N)N2CCOCC2C(F)(F)F)nc2c1C(C)(C)C(=O)N2c1cnc(N2CCC(F)(F)C2)nc1` (stereo not shown) [Compound E216] is 100 to 500 nM. For `CNc1nc(COC(=N)N2CCC[C@@H]2C(F)(F)F)nc2c1C(C)(C)C(=O)N2c1cnc(N2C[C@@H](C)O[C@@H](C)C2)nc1` [Compound E217], the IC50 under setting [1] is under 100 nM. As for `CNc1nc(COC(=N)N2CCOCC2C(F)(F)F)nc2c1C(C)(C)C(=O)N2c1cnc(N2C[C@@H](C)O[C@@H](C)C2)nc1` (stereo partly shown) [Compound E218], under setting [1], the IC50 lay within 500 to 5000 nM. For the compound `C[C@@H]1CN(c2ncc(N3C(=O)C(C)(C)c4c(NC5CCC5)nc(COC(=N)N5CCOCC5C(F)(F)F)nc43)cn2)C[C@H](C)O1` (stereo partly shown) [Compound E219], the IC50 under setting [1] fell in the range of 100 to 500 nM. On to `CC1(C)C(=O)N(c2cnc(N3CCC(F)(F)C3)nc2)c2nc(COC(=N)N3CCOCC3C(F)(F)F)nc(NC3CCC3)c21` (stereo not shown) [Compound E220], for which the IC50 under setting [1] is 100 to 500 nM. Still for that read-out and setting: the figure for `Cn1c(OCc2nc(N)nc(Nc3ccc(Oc4ccccc4)cc3)n2)nc(Br)c1Br` [Compound F2] is over 5000 nM. In the case of `CC(C)N(CC(F)(F)F)C(=N)OCc1nc(N)nc(Nc2ccc(Oc3ccccc3)cc2)n1` [Compound F8], the IC50 (Homo sapiens, 786-0, 72 h) is under 100 nM. As to `[2H]C([2H])(OC(=N)N1CCC(F)(F)CC1)c1nc(N)nc(Nc2ccc(Oc3ccccc3)cc2)n1` [Compound F10], the IC50 under setting [1] was under 100 nM.

For `N=C(OCc1nc(N)nc(Nc2ccc(Oc3ccccc3)cc2)n1)N(C1CCCCC1)C1CC1` [Compound F14], the IC50 (Homo sapiens, 786-0, 72 h) was under 100 nM. Consider `CC1(NC(=N)OCc2nc(N)nc(Nc3ccc(Oc4ccccc4)cc3)n2)CCCCC1` [Compound F15], for which the IC50 under setting [1] lay in the range of 100 to 500 nM. For the compound `CCN(CC)C(=N)OCc1nc(N)nc(Nc2ccc(Oc3ccccc3)cc2)n1` [Compound F17], the IC50 under setting [1] fell in the range of 100 to 500 nM. `CC1(NC(=N)OCc2nc(N)nc(Nc3ccc(Oc4ccccc4)cc3)n2)CC1` [Compound F28]: the IC50 under setting [1] lay in the range of 100 to 500 nM. In the case of `CN(C(=N)OCc1nc(N)nc(Nc2ccc(Oc3ccccc3)cc2)n1)c1ccccc1` [Compound F29], the IC50 (Homo sapiens, 786-0, 72 h) is under 100 nM. As for `CCN(CC(F)(F)F)C(=N)OCc1cc(Nc2ccc(Oc3ccccc3)cc2)ncn1` [Compound F39], the IC50 under setting [1] was 500 to 5000 nM.
